Columns and labels:
U937-C5aR cells [1] = assay: Chemotaxis assay, U937-C5aR cells; format: cell-based, human; settings: Example 6
Protocol: Neutrophils (4×10^6/ml) or U937-C5aR cells (6×10^6/ml) in chemotaxis buffer were treated for 15 min at 22° C. with 20 μg/ml of anti-CD36, anti-CD47 or anti-gC1qR. Cells were then allowed to respond to either 2.5% complement-activated serum (ZAS) or 1 nM purified C5a for 120 min (FIG. 14A. U937-C5aR cells) or 25 min (Panel B. neutrophils) at 37° C. Numbers represent mean±SEM, n=4.
U937 cells were originally obtained from the American Type Culture Collection and transfected with either the human C5a receptor or the empty plasmid vector as detailed previously (16). U937 cells were cultured at 37° C., 5% CO2 in RPMI 1640 containing 10% FBS (HyClone) and […] active G418 (Invitrogen Life Technologies) and maintained at a density between 2×10^5 and 1.5×10^6/ml.
Serum and citrated plasma (1 ml each) were incubated for 1 h at 37° C. with 10 mg of zymosan. Particulate matter was removed by centrifugation (15,000× g) for 5 min at 4° C. using a microfuge. Samples were then aliquoted and frozen at −20° C.
Cell movement was quantitated using a 48-well microchemotaxis chamber (NeuroProbe) and 5.0-μm pore size cellulose nitrate filters (purchased from NeuroProbe) as previously described (13). Cell movement was quantitated microscopically by measuring the distance in micrometers that the leading front of cells had migrated into the filter according to the method described by Zigmond and Hirsch (17). In each experiment, five fields per duplicate filter were measured at ×400 magnification. The value of the background controls for random cell movement (cells responding to buffer) has been subtracted in all cases so that the data are presented as net movement in micrometers.

[2] = test system: differentiated HL-60 cells; assay: Chemotaxis assay, differentiated HL-60 cells responding to C5a, C5a plus DBP or ZAS; format: cell-based, Human; settings: differentiated HL-60 cells; 100 pM C5a (FIG. 1: 25-200 pM) plus 50 nM of indicated DBP, 60 min at 37° C
Protocol: Cells (6×10^6/ml) were resuspended in chemotaxis buffer and treated either with chemotaxis buffer (control), 1 μM of peptide 1 (130-152), or 1 μM of peptide 2 (150-172) for 30 min at room temperature. The chemotactic response of differentiated HL-60 cells to 100 pM C5a alone, C5a plus 50 nM full-length natural DBP or 1% zymosan-activated serum (ZAS) was measured for 60 minutes at 37° C. Numbers represent net cell movement in 60 min, mean±SEM of 3 experiments.
(§1) Cells and cell culture: Human promyelocytic cell line HL-60 was obtained from ATCC (Rockville, Md.) and cultured in RPMI 1640 medium supplemented with 10% FBS. Differentiation of HL-60 cells was initiated with 250 μM Bt2cAMP for 48 hours.
Chemotaxis assay. Chemotaxis was performed as described previously (see Kew, R. R. et al., J. Leukoc. Biol. 58, 55-58 (1995)). In brief, 35 μl of C5a (0.01 to 1 nM) in the chemotaxis buffer (HBSS with 1% BSA, 10 mM HEPES) were placed in duplicate in the lower chamber of a 48-well chamber (Neuroprobe, Md.). The lower compartments were covered with a 5 μm pore cellulose nitrate filter and then 50 μl of the cell suspension (2.5×10^5/well) was pipetted into the upper compartments. The chemotactic chamber was incubated for 1 hour at 37° C. in a humidified incubator with 5% CO2. Following incubation, the filter was fixed, stained and mounted on a microscope slide. Cell movement was measured as the distance in microns that the leading front of the cells had migrated into the filter (see Zigmond, S. et al., J. Exp. Med. 137, 387 (1973)).

[3] = test system: differentiated HL-60 cells; assay: Ligand-induced calcium mobilization (Fluo-3 AM) in differentiated HL-60 cells; format: cell-based, Human; settings: differentiated HL-60 cells incubated 30 min with 50 nM of indicated DBP, then C5a
Protocol: as §1
Ligand-induced calcium mobilization. Calcium mobilization studies were performed using the Fluo-3 AM probe as described previously (see Merritt, J. E. et al., Biochem. J. 269, 513-519 (1990)). Differentiated HL-60 cells (1×10^7 cells/ml) were resuspended in HBSS-1% BSA containing 2 μM Fluo-3 AM (Molecular Probes, Eugene, Oreg.) and incubated at 37° C. for 40 minutes. Cells incubated without the dye were used as a control to measure autofluorescence (Fmin). Following the dye uptake, cells were washed twice then suspended at 5×10^6 cells/ml in HBSS containing 1% BSA. Half of the cell suspension was treated with 50 nM DBP for 30 min at room temperature, the other half served as the untreated control. For each measurement, 400 μl of cell suspension (with or without DBP) was added to a cuvette and stimulated with various concentrations of purified C5a at room temperature (22-24° C.). Fluorescence was then measured immediately using a Perkin-Elmer LS-5 fluorometer at 505 nm excitation, 526 nm emission for Fluo-3 AM. Fmax was measured by treating labeled cells with 60 μM digitonin. Intracellular free calcium concentrations were calculated using the following formula: (Ca^2+)=Kd (F−Fmin)/(Fmax−F), where Kd=325 nM for Fluo-3 according to manufacturer (Molecular Probes).

U937-C5aR cells [4] = assay: C5a-induced intracellular calcium mobilization in U937-C5aR cells; format: cell-based, human; settings: FIG. 11B, 12; 0.5 μM DBP peptide, 50 nM DBP, 0.1 nM C5a
Protocol: FIG. 11A and FIG. 11B show the effect of DBP on C5a-induced intracellular calcium mobilization in U937-C5aR cells. U937-C5aR cells (10^7 cells/ml) were resuspended in HBSS-1% BSA containing 2 μM Fluo-3 AM and incubated at 37° C. for 40 minutes. Cells incubated without the dye were used as a control to measure autofluorescence (Fmin). Following the dye uptake, cells were washed twice then suspended at 5×10^6 cells/ml in HBSS containing 1% BSA. For the pretreatment experiments, cells were incubated for 30 min at 22° C. with 50 nM DBP or 0.5 μM DBP peptide 1 (p1). For each measurement, 400 μl of cell suspension was added to a cuvette and stimulated with the indicated concentration of C5a (FIG. 11A) or 0.1 nM C5a (FIG. 11B). Fluorescence was then measured immediately using a Perkin-Elmer LS-5 fluorometer at 505 nm excitation, 526 nm emission for Fluo-3 AM. Fmax was measured by treating labeled cells with 60 μM digitonin. Intracellular free calcium concentrations were calculated using the following formula: (Ca^2+)=Kd (F−Fmin)/(Fmax−F), where Kd=325 nM for Fluo-3 according to manufacturer (Molecular Probes). Data are presented as mean±SEM (n=4-6) of the increase in intracellular calcium concentration.
U937-C5aR cells (10^7 cells/ml) were resuspended in HBSS-1% BSA containing 2 μM Fluo-3 AM and incubated at 37° C. for 40 minutes. Cells incubated without the dye were used as a control to measure autofluorescence (Fmin). Following the dye uptake, cells were washed twice then suspended at 5×10^6 cells/ml in HBSS containing 1% BSA. Cells were incubated for 30 min at 22° C. with either 50 nM DBP or 0.5 μM DBP peptide. For each measurement, 400 μl of cell suspension was added to a cuvette and stimulated with 0.1 nM purified C5a. Fluorescence was then measured immediately using a Perkin-Elmer LS-5 fluorometer at 505 nm excitation, 526 nm emission for Fluo-3 AM. Fmax was measured by treating labeled cells with 60 μM digitonin. Intracellular free calcium concentrations were calculated using the following formula: (Ca2+)=Kd (F−Fmin)/(Fmax−F), where Kd=325 nM for Fluo-3 according to manufacturer (Molecular Probes)

neutrophils = assay: Quantitative binding of radioiodinated DBP to neutrophils; set-up: species or system human; settings: DBP saturated with the ligand; 100 nM 125I-DBP, 37° C. 60 min
Protocol: Quantitative binding of radioiodinated DBP to neutrophils Purified DBP (200-400 μg) was iodinated using Na-^125I (Dupont-NEN, Wilmington, Del.) as previously described (DiMartino and Kew, 1999). Neutrophils (10^7 cells/sample) were incubated with 100 nM ^125I-DBP in Hank's balanced salt solution (HBSS) containing 0.1% bovine serum albumin (BSA) (assay buffer) in a total volume of 100 μl. Samples were incubated at 37° C. for 60 min after which cells were placed on ice and then washed twice with ice-cold assay buffer (1.0 ml each) and centrifuged for 7 min at 200× g at 2° C. The cell pellets were then counted for total radioactivity in a gamma counter. All samples were assayed in triplicate or quadruplicate.

Compound | enhancement of C5a-mediated chemotaxis (net cell movement) [2] | enhancement of intracellular Ca2+ flux in response to C5a [3] | other results
[O-][Cl+2]([O-])O [chlorate, sodium chlorate] | – | – | U937-C5aR chemotaxis to C-activated plasma (U937-C5aR cells [1]; 2.5% C-activated plasma): not; U937-C5aR chemotaxis to C-activated serum (U937-C5aR cells [1]; 2.5% C-activated serum): significantly reduces; U937-C5aR chemotaxis to 1 nM purified C5a (net movement) (U937-C5aR cells [1]; treated cells, DBP-independent): 56+/−4.8 μm/120 min
(1-112): truncated version of DBP domain I expressed in E. coli (LERGRDYEKNKVCKEFSHLGKEDFTSLSLVLYSRKFPSGT) | lack enhancing activity | lack enhancing activity | –
(1-125): truncated version of DBP domain I expressed in E. coli (LERGRDYEKNKVCKEFSHLGKEDFTSLSLVLYSRKFPSGT) | lack enhancing activity | lack enhancing activity | –
(1-150): truncated version of DBP domain I expressed in E. coli (LERGRDYEKNKVCKEFSHLGKEDFTSLSLVLYSRKFPSGT) | almost the same level of activity as full-length natural DBP | almost the same level of activity as full-length natural DBP | –
(1-175): truncated version of DBP domain I expressed in E. coli (LERGRDYEKNKVCKEFSHLGKEDFTSLSLVLYSRKFPSGT) | almost the same level of activity as full-length natural DBP | almost the same level of activity as full-length natural DBP | –
EAFRKDPKEYAN [peptide 3, DBP residues 130-141] | – | – | block of the DBP-enhanced C5a calcium signal (U937-C5aR cells [4]): partially block
Vitamin D | – | – | effect on binding of 125I-DBP to neutrophils (neutrophils): does not alter its ability to bind to neutrophils
domain I & II: truncated reDBP, residues 1-378 (LERGRDYEKNKVCKEFSHLGKEDFTSLSLVLYSRKFPSGT) | significantly enhanced | significantly enhanced | –
domain I: truncated reDBP, residues 1-191 (EAFRKDPKEYANQFMWEYST) | significantly enhanced | significantly enhanced | –
peptide 5: DBP residues #135-146, printed as SEQ ID NO: 10; residues match the sequence of SEQ ID NO: 9 (NQFMWEYSTNYG) | – | – | block of the DBP-enhanced C5a calcium signal (U937-C5aR cells [4]): partially block

From patent US7547676B2, “Antagonist peptides to the C5A chemotactic function of vitamin D binding protein” (The Research Foundation of State University of New York, priority 2004, dated 2009)
